Test results as given in patent US20220120736A1, “METHODS AND ASSAYS FOR MODULATING GENE TRANSCRIPTION BY MODULATING CONDENSATES” (Whitehead Institute for Biomedical Research, priority 2018, published 2022).

Columns and labels:
MYC oncogene = experiment: Confocal microscopy of MED1 condensates at MYC; assay type: cell-based; settings: presence versus absence of estrogen
[1] = test system: ER LBD point mutant-MED1 condensate in U2OS-Lac cells; experiment: LAC binding assay, ER LBD point mutants tethered to Lac array; assay type: cell-based; settings: ER mutants (Y537S, D538G)
Description: Constructs were assembled by NEB HIFI cloning in pSV2 mammalian expression vector containing an SV40 promoter driving expression of a CFP-LacI fusion protein. The activation domains and mutant activation domains of ESR1 were fused by the c-terminus to this recombinant protein, joined by the linker sequence […] (SEQ ID NO: 14). For some experiments a variant plasmid with mCherry in place of CFP was used. […] Cells were then plated on fibronectin-coated glass coverslips and transfected using lipofectamine 3000 (Thermofisher L3000015). For high MED1 conditions, a construct with a mammalian expression vector containing a PGK promoter driving the expression of MED1 fused to GFP was co-transfected. […]
For analysis of Lac array data, custom Python scripts were written to process and analyze image data gathered in Lac and tagged-protein channels. […] Segmented regions (also determined by measure.label) were then filtered based on minimum area (150 pixels), maximum area (2000 pixels), circularity (c=4pi*area/perimeter^2; 0.8), and presence in a nucleus as defined by the mask described above. A norm enrichment ratio was calculated by determining the mean intensity of the tagged-protein in the segmented Lac spot and dividing it by the mean intensity of the tagged-protein present in the same whole nucleus.

Structure (SMILES): C[C@]12CC[C@@H]3c4ccc(O)cc4CC[C@H]3[C@@H]1CC[C@@H]2O [estrogen, B-Estradiol]
- MED1 condensate formation at the MYC oncogene (MYC oncogene): stimulates MED1 condensate formation at the MYC oncogene
- MED1 condensate formation at tethered ER LBD, dependence on estrogen [1]: both in the presence and absence of estrogen
